Measured values taken from patent US7348357B2, “Arylamides” (Bayer HealthCare AG, priority 2002, dated 2008).
In brackets after ≈: the same amount, converted by molar mass.

Tests used:
[1] = test system: Staphylococcus aureus 133; test: Minimum inhibitory concentration (MIC), liquid dilution test; assay type: cell-based; settings: Isosensitest medium, 10^5 organisms per ml, 37° C., 18-24 hours, lowest concentration with no visible bacterial growth
Method: (§1) Determination of the Minimum Inhibitory Concentration (MIC): The MIC is determined in a liquid dilution test. Overnight cultures of the test organisms are diluted to a cell count of 10^5 organisms per ml in Isosensitest medium (Difco, Irvine, USA) and are incubated with dilutions of the test substances (1:2 dilution stages). Exceptions are the tests with S. pneumoniae […], which are conducted in BHI broth (Difco) plus 20% bovine serum, and with H. influenzae, which are conducted in BHI broth (Difco) plus 20% bovine serum, 10 μg/ml hemin and 1% Isovitale (Becton Dickinson, New Jersey, USA). The cultures are incubated at 37° C. for 18-24 hours; S. pneumoniae and H. influenzae in the presence of 8-10% CO2. The lowest concentration of each substance at which there is no longer any visible bacterial growth is defined as the MIC. The MICs in μmol/l of some compounds of the invention against a series of test organisms are listed by way of example in the table below.

[2] = test system: Haemophilus influenzae Spain 7; test: as above; assay type: cell-based; settings: BHI broth plus 20% bovine serum, 10 μg/ml hemin and 1% Isovitale, 37° C., 18-24 hours, 8-10% CO2, lowest concentration with no visible bacterial growth
Method: as §1

[3] = test system: bacteria; settings: described in the literature (J. Am. Chem. Soc. 1987, J. Org. Chem. 1994, J. Antibiot. 1997); cited from earlier work

Row | Compound | MIC [1] | MIC Haemophilus influenzae Spain 7 [2] | antibacterial activity [3]
1 | C[C@@H]1C(=O)NC(=O)[C@H]1C(=O)[C@@H](NC(=O)C[C@H](NC(=O)c1cc2cc(F)ccc2[nH]1)c1ccccc1)C1CCCC1 [Example 48, N-[(1S)-3-({(1S)-1-Cyclopentyl-2-[(3R,4S)4-methyl-2,5-dioxo-3-pyrrolidinyl]-2-oxoethyl}amino)-3-oxo-1-phenylpropyl]-5-fluoro-1 H-indole-2-carboxamide] | 0.98 µM (≈ 0.536 µg/mL) | 15.63 µM | –
2 | C/C=C/C=C/C=C/C(=O)N[C@@H](CC(=O)N[C@H](C(=O)[C@@H]1C(=O)NC(=O)[C@H]1C)C(C)C)c1ccccc1 [andrimid] | – | – | having antibacterial activity
3 | C/C=C/C=C/C(=O)N[C@@H](CC(=O)N[C@H](C(=O)[C@@H]1C(=O)NC(=O)[C@H]1C)C(C)C)c1ccccc1 [moiramide B] | – | – | having antibacterial activity
4 | C/C=C/C=C/C=C/C(=O)N[C@@H](CC(=O)N[C@H](C(=O)[C@@]1(O)C(=O)NC(=O)[C@H]1C)C(C)C)c1ccccc1 [moiramide C] | – | – | inactive

The next lines start with results.

Row | MIC [1] | MIC Haemophilus influenzae Spain 7 [2] | Compound | antibacterial activity [3]
5 | 15.6 µM (≈ 7.54 µg/mL) | 7.81 µM | CC(C)[C@H](NC(=O)C[C@H](NC(=O)c1cccc(F)n1)c1ccccc1)C(=O)[C@@H]1C(=O)NC(=O)[C@H]1C [Example 2, 6-Fluoro-N-{(1S)-3-[((1S)-2-methyl-1-{[(3R,4S)-4-methyl-2,5-dioxo-3-pyrrolidinyl]-carbonyl}propyl)amino]-3-oxo-1-phenylpropyl}-2-pyridinecarboxamide] | –
6 | 7.81 µM (≈ 4.22 µg/mL) | 15.63 µM | CC(C)[C@H](NC(=O)C[C@H](NC(=O)c1cc(-c2ccccc2)ccn1)c1ccccc1)C(=O)[C@@H]1C(=O)NC(=O)[C@H]1C [Example 6, N-{(1S)-3-[((1S)-2-Methyl-1-{[(3R,4S)4-methyl-2,5-dioxo-3-pyrrolidinyl]-carbonyl}propyl)amino]-3-oxo-1-phenylpropyl}-4-phenyl-2-pyridinecarboxamide] | –
7 | 7.81 µM (≈ 3.83 µg/mL) | 62.5 µM | C[C@@H]1C(=O)NC(=O)[C@H]1C(=O)C(NC(=O)C[C@H](NC(=O)c1ccccn1)c1ccccc1)C1CCCC1 (stereo partly drawn) [Example 9, N-[(1S)-3-({1-Cyclopentyl-2-[(3R,4S)-4-methyl-2,5-dioxo-3-pyrrolidinyl]-2-oxoethyl}amino)-3-oxo-1-phenylpropyl]-2-pyridinecarboxamide] | –
8 | 0.98 µM (≈ 0.565 µg/mL) | 62.5 µM | COc1ccc(CC(=O)N[C@@H](CC(=O)N[C@H](C(=O)[C@@H]2C(=O)NC(=O)[C@H]2C)C(C)C)c2ccccc2)c(Cl)c1Cl [Example 109] | –
